According to ChEMBL document CHEMBL5131385, “Novel piperazine based benzamide derivatives as potential anti-glioblastoma agents inhibiting cell proliferation and cell cycle progression” (Eur J Med Chem, 2022):
Calls of active or inactive are those of the source. The rule behind the calls is not given here.

Columns and labels:
[1] = tested on: U-87MG ATCC; experiment: Antiproliferative activity against human U-87 MG cells assessed as inhibition of cell proliferation and measured upto 72 hrs by CCK8 assay; assay type: functional, cell-based; details: TDE = time-dependent effect
[2] = tested on: U-251; experiment: Antiproliferative activity against human U-251 cells assessed as release of LDH in supernatant and measured after 72 hrs by microplate reader assay; assay type: functional, cell-based; details: DDE = dose-dependent effect
[3] = tested on: U-87MG ATCC; experiment: Antiproliferative activity against human U-87 MG cells assessed as reduction in cell proliferation at 0.125 to 0.5 uM and measured after 24 hrs by EdU incorporation based assay; assay type: functional; details: dose 0.125-0.5 µM, DDE = dose-dependent effect
[4] = tested on: U-87MG ATCC; experiment: Induction of apoptosis in human U-87 MG cells assessed as morphological changes at 0.075 to 1.20 uM measured after 72 hrs by Giemsa staining based microscopic analysis; assay type: functional, cell-based; details: dose 0.075-1.2 µM
[5] = tested on: U-251; experiment: Induction of apoptosis in human U-251 cells assessed as reduction in cell count at 0.375 to 6 uM measured after 72 hrs by Giemsa staining based microscopic analysis; assay type: functional; details: dose 0.375-6 µM
[6] = tested on: U-87MG ATCC; experiment: Induction of apoptosis in human U-87 MG cells assessed as decrease in cell size at 0.075 to 1.20 uM measured after 72 hrs by Giemsa staining based microscopic analysis; assay type: functional; details: dose 0.075-1.2 µM
[7] = Induction of apoptosis in human U-87 MG cells assessed as late apoptotic cells at 0.075 uM incubated for 72 hrs by Annexin V-FITC/PI staining based flow cytometry method (reference value: 0.42 %); assay type: functional, U-87MG ATCC
[8] = Induction of apoptosis in human U-87 MG cells assessed as late apoptotic cells at 0.30 uM incubated for 72 hrs by Annexin V-FITC/PI staining based flow cytometry method (reference value: 0.42 %); assay type: functional, U-87MG ATCC; details: dose 0.3 µM
[9] = tested on: U-251; experiment: Induction of apoptosis in human U-251 cells assessed as late apoptotic cells at 6 uM incubated for 72 hrs by Annexin V-FITC/PI staining based flow cytometry method (Rvb =1.31 %); assay type: functional
[10] = tested on: U-251; experiment: Induction of apoptosis in human U-251 cells assessed as late apoptotic cells at 1.50 uM incubated for 72 hrs by Annexin V-FITC/PI staining based flow cytometry method (Rvb =1.31 %); assay type: functional; details: dose 1.5 µM
[11] = tested on: U-87MG ATCC; experiment: Induction of cell cycle arrest in human U-87 MG cells assessed as accumulation at G0/G1 phase at 0.075 to 1.2 uM and measured after 72 hrs by flow cytometry; assay type: functional, cell-based; details: dose 0.075-1.2 µM, DDE = dose-dependent effect
[12] = tested on: U-87MG ATCC; experiment: Induction of cell cycle arrest in human U-87 MG cells assessed as decrease in accumulation at S phase at 0.075 to 1.20 uM measured after 72 hrs by flow cytometry; assay type: functional, cell-based; details: dose 0.075-1.2 µM, DDE = dose-dependent effect
[13] = Tmax in Sprague-Dawley rat plasma at 100 mg/kg, ip and measured upto 240 mins by LC-MS analysis; assay type: ADME, organism-based
[14] = Ratio of drug level in Sprague-Dawley rat brain to plasma at 100 mg/kg, ip measured after 240 mins by LC-MS analysis; assay type: ADME, organism-based; details: read-out: logBB (converted)
[15] = Acute toxicity in Kunming mouse assessed as survival at 600 mg/kg, ip measured after 14 days; assay type: organism-based; details: in vivo, 336 h, time 14 day
[16] = tested on: U-87MG ATCC; experiment: Antitumor activity against human U-87 MG cells xenografted in BALB/c mouse assessed as decrease in tumor weight at 10 mg/kg,ip bid for 1 month; assay type: functional, organism-based; details: time 1.0 months
[17] = tested on: U-251; experiment: Downregulation of pRb gene expression in human U-251 cells at 0.075 to 1.2 uM measured after 72 hrs by western blot analysis; assay type: functional, cell-based; details: dose 0.075-1.2 µM
[18] = tested on: U-87MG ATCC; experiment: Downregulation of cyclin D1 gene expression in human U-87 MG cells at 0.075 to 1.2 uM measured after 72 hrs by western blot analysis; assay type: functional, cell-based; details: dose 0.075-1.2 µM
[19] = tested on: U-87MG ATCC; experiment: Downregulation of CDK6 gene expression in human U-87 MG cells at 0.075 to 1.2 uM measured after 72 hrs by western blot analysis; assay type: functional, cell-based; details: dose 0.075-1.2 µM
[20] = tested on: U-87MG ATCC; experiment: Downregulation of pRb gene expression in human U-87 MG cells at 0.075 to 1.2 uM measured after 72 hrs by western blot analysis; assay type: functional, cell-based; details: dose 0.075-1.2 µM

Which results are given for `COCCN1CCN(c2ccc(F)cc2C(=O)Nc2ccc(CNC(=O)OCc3cccnc3)cc2)CC1`?
Activity [1]: Tde; Activity [2]: Dde; Activity [3]: Dde; Activity [4]: Active; Activity [5]: Active; Activity [6]: Active; Activity [7]: 0.41%; Activity [8]: 0.95%; Activity [9]: 5.75%; Activity [10]: 2.47%; Activity [11]: Dde; Activity [12]: Dde; Tmax [13]: 30 min; Kp at 4 h [14]: 1.07; Activity [15]: Non-Toxic; Activity [16]: Active; Activity [17]: Active; Activity [18]: Active; Activity [19]: Active; Activity [20]: Active
